Like-named read-outs stand apart in the source and are kept apart here.
What was measured:
[1] = target: T1, AOC1 (Homo sapiens, UniProt P19801); experiment: AOC1 biochemical assay (Amplex Red)
T1 construct: purchased R&D Systems 8297-AO-010
T1 sequence (P19801 20-751): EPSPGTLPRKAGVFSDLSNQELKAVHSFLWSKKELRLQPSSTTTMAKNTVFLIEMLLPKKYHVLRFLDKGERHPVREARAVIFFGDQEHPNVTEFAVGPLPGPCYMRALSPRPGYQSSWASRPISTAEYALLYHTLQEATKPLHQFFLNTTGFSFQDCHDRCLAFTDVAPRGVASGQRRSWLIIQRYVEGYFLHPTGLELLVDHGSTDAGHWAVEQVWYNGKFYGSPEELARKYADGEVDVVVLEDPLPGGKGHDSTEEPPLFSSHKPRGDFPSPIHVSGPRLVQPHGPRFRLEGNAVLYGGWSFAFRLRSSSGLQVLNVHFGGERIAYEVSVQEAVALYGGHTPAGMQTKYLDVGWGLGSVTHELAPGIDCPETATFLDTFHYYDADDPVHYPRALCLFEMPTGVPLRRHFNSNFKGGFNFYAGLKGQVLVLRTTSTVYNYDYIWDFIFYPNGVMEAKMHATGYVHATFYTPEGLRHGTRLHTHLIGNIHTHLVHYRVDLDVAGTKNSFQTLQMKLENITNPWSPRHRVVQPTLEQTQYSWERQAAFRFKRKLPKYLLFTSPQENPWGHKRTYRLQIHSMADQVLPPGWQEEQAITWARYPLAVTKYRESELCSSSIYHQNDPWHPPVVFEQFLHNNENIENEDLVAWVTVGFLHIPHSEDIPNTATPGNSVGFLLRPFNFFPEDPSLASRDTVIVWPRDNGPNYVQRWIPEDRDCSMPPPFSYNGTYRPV
Experimental: The Amplex® Red Assay (available from Thermo Fisher Scientific) provides a sensitive method for the detection of H2O2 generated during enzymatic reactions like the amine oxidation catalyzed by AOC1. The assay reagent is a colorless substrate (N-acetyl-3,7-dihydroxyphenoxazine) that reacts in a 1:1 stoichiometry with hydrogen peroxide (H2O2) to produce the fluorescent dye resorufin (7-hydroxyphenoxazin-3-one, excitation/emission maxima=570/585 nm).
An aliquot of 3 μL of the compound dilution is added to a 384 well plate (Optiplate, PS, flat bottom F, black, PERKIN ELMER, #6007270) in a DMSO concentration of 6.6%.
An AOC1 enzyme aliquot (#8297-AO-010, R&D Systems) is thawed on ice, diluted in reaction buffer and added in a volume of 7 μL to the wells to give a final assay concentration of 1 ng/well. After incubation of inhibitor and enzyme for 30 minutes at 37° C., the enzymatic reaction is started with the addition of 10 μL of Amplex® Red reaction mix (final assay concentration: 100 mM sodiumphosphate, 120 μM Amplex® Red reagent (#A22177 Molecular Probes), 1.5 U/mL Horseradish Peroxidase (#P8375 Sigma-Aldrich), 200 μM putrescine (#P7505 Sigma-Alrdich), 0.05% Pluronic F-127 (#P3000MP Sigma-Aldrich), pH 7.4, 37° C.).
After an incubation for 30 minutes at 37° C. the turnover of the substrate is determined directly (or after the addition of an excess of an amine-oxidase inhibitor) with a fluorescence reader (Ex 540 nm/Em 590 nm) like Envision 2104 Multilabel Reader (PERKIN ELMER).

[2] = target: T2, human AOC3 enzyme (recombinant CHO cells) (Homo sapiens, UniProt Q16853); experiment: AOC3 biochemical assay (MAO-Glo), human enzyme
T2 construct: expressed in transfected cells; host or cells: CHO cells
T2 sequence (Q16853 1-763): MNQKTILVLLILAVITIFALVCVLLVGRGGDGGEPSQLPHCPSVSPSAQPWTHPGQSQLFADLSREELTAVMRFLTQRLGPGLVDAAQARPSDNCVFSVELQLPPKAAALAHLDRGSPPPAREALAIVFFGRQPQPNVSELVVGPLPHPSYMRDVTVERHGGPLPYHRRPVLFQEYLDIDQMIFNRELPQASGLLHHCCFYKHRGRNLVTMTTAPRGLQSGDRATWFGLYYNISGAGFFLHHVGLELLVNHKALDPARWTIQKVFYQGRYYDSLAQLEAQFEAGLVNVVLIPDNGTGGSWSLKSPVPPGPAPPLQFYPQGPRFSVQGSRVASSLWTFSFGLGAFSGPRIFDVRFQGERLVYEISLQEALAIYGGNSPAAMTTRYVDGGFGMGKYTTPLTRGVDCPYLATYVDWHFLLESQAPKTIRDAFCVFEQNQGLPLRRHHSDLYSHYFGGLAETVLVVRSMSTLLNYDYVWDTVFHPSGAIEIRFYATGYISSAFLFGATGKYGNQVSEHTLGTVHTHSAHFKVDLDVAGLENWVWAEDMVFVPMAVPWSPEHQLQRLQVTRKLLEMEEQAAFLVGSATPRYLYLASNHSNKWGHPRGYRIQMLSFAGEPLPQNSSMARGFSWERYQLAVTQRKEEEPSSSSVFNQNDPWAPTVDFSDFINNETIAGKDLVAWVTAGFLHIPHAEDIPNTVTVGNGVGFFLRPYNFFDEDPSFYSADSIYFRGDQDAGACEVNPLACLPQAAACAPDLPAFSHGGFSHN
Description: The MAO-Glo™ Assay (commercially available from PROMEGA, #V1402) provides a sensitive method for the measurement of monoamine oxidase (MAO) activity (Valley, M. P. et al., 2006, Anal. Biochem. 359: 238-246) from a variety of tissues, biofluids or recombinant expressed or purified enzymes. As substrate a derivate of the beetle luciferin ((4S)-4,5-dihydro-2-(6-hydroxybenzothiazolyl)-4-thiazole-carboxylic acid) is used, which is oxidized at a primary amine moiety. After a spontaneous elimination and a catalyzed esterase reaction, the turnover of luciferin by the luciferase is recorded as a signal of AOC3 activity.
An aliquot of 3 μL of the compound dilution is added to a 384 well plate (Optiplate, PS, flat bottom, white, PERKIN ELMER, #6007290) with a final DMSO concentration of 6.6%. Recombinant CHO cells, overexpressing the human (1500 cells/well), mouse (1000 cells/well) or rat (500 cells/well) AOC3 enzyme are diluted in reaction buffer and added in a volume of 15 μL to the wells. After incubation for 20 minutes at 37° C., 2 μL of MAO substrate (dissolved in DMSO at 16 mM, adjusted to assay concentration in reaction buffer to a final assay concentration of 20 μM) is added and further incubated for 60 minutes at 37° C. The turnover of the substrate is determined by the addition of 20 μL of the detection-mix which was generated by the addition of reconstitution buffer with esterase (PROMEGA, #V1402) to the luciferin detection reagent (PROMEGA, #V1402). After an incubation period of 20 minutes, the luminescent signal is measured with Envision 2104 Multilabel Reader (PERKIN ELMER).

[3] = comparison table, read-out: IC50 AOC3
[4] = comparison table, read-out: IC50 AOC1

CC(=O)N[C@@H]1CCCN(S(=O)(=O)c2ccc(OC/C(=C\F)CN)nc2)C1 [Example 24]
IC50 ([1]; read-out: AOC1 IC50): 1 µM

CNC(=O)[C@H]1[C@@H]2CN(S(=O)(=O)c3ccc(OC/C(=C\F)CN)nc3)C[C@@H]21 [Example 27]
IC50 ([2]; read-out: AOC3 IC50): 0.005 µM
IC50 ([1]; read-out: AOC1 IC50): 1.26 µM

CC1(O)CN(S(=O)(=O)c2ccc(OC/C(=C\F)CN)nc2)C1 [Example 16]
IC50 ([2]; read-out: AOC3 IC50): 0.009 µM
IC50 ([1]; read-out: AOC1 IC50): 0.441 µM

NC/C(=C/F)COc1ccc(S(=O)(=O)N2C[C@H]3C[C@@]3(C(=O)N3CCOCC3)C2)cn1 [Example 22]
IC50 ([2]; read-out: AOC3 IC50): 0.035 µM
IC50 ([1]; read-out: AOC1 IC50): 13.7 µM

CN(C)C(=O)[C@H]1CCN(S(=O)(=O)c2ccc(OC/C(=C\F)CN)nc2)C1 [Example 4]
IC50 ([2]; read-out: AOC3 IC50): 0.023 µM
IC50 ([1]; read-out: AOC1 IC50): 3.42 µM

CCNC(=O)C1(C)CCN(S(=O)(=O)c2ccc(OC/C(=C\F)CN)nc2)CC1 [Example 23]
IC50 ([2]; read-out: AOC3 IC50): 0.028 µM
IC50 ([1]; read-out: AOC1 IC50): > 50 µM

NC/C(=C/F)COc1ccc(S(=O)(=O)N2CCC[C@@H]2C(N)=O)cn1 [Example 18]
IC50 ([2]; read-out: AOC3 IC50): 0.05 µM
IC50 ([1]; read-out: AOC1 IC50): 1.22 µM

CC(=O)N[C@H]1CCCN(S(=O)(=O)c2ccc(OC/C(=C\F)CN)nc2)C1 [Example 6]
IC50 ([1]; read-out: AOC1 IC50): 0.678 µM

NC/C(=C/F)COc1ccc(S(=O)(=O)N2CC[C@@H](C(N)=O)C2)cn1 [Example 31]
IC50 ([2]; read-out: AOC3 IC50): 0.004 µM
IC50 ([1]; read-out: AOC1 IC50): 0.869 µM

NC/C(=C/F)COc1ccc(S(=O)(=O)N2CC[C@H](C(N)=O)C2)cn1 [Example 39]
IC50 ([2]; read-out: AOC3 IC50): 0.006 µM
IC50 ([1]; read-out: AOC1 IC50): 0.909 µM

CNC(=O)[C@@]12C[C@@H]1CN(S(=O)(=O)c1ccc(OC/C(=C\F)CN)nc1)C2 [Example 29]
IC50 ([2]; read-out: AOC3 IC50): 0.008 µM
IC50 ([1]; read-out: AOC1 IC50): 1.37 µM

NC/C(=C/F)COc1ccc(S(=O)(=O)N2CC[C@H](O)C2)cc1 [Reference compound B, reference compound]
IC50 [2, 3]: 0.006 µM
IC50 [1, 4]: 1.21 µM

NC/C(=C/F)COc1ccc(S(=O)(=O)N2CC(C(N)=O)C2)cn1 [Example 20]
IC50 ([2]; read-out: AOC3 IC50): 0.006 µM
IC50 ([1]; read-out: AOC1 IC50): 1.36 µM

NC/C(=C/F)COc1ccc(S(=O)(=O)N2CCC(C(=O)N3CCC3)CC2)cn1 [Example 10]
IC50 ([2]; read-out: AOC3 IC50): 0.022 µM
IC50 ([1]; read-out: AOC1 IC50): 3.18 µM

NC/C(=C/F)COc1cnc(N2CC[C@H](O)C2)nc1 [Z isomer of example 6 of WO 2018/027892, reference compound]
IC50 [2, 3]: 0.007 µM
IC50 ([1]; read-out: IC50 AOC1): 0.07 µM

CC(=O)NC1CCN(S(=O)(=O)c2ccc(OC/C(=C\F)CN)nc2)C1 (stereo not shown) [Example 12]
IC50 ([2]; read-out: AOC3 IC50): 0.015 µM
IC50 ([1]; read-out: AOC1 IC50): 3.18 µM

CN(C)S(=O)(=O)c1ccc(OC/C(=C\F)CN)cc1 [Compound 10 of WO 2013/163675, reference compound]
IC50 [2, 3]: 0.002 µM
IC50 [1, 4]: 0.963 µM

CCNC(=O)C1CCN(S(=O)(=O)c2ccc(OC/C(=C\F)CN)nc2)CC1 [Example 15]
IC50 ([2]; read-out: AOC3 IC50): 0.009 µM
IC50 ([1]; read-out: AOC1 IC50): 4.64 µM

CC1(O)CCN(S(=O)(=O)c2ccc(OC/C(=C\F)CN)nc2)CC1 [Example 41]
IC50 ([2]; read-out: AOC3 IC50): 0.01 µM
IC50 ([1]; read-out: AOC1 IC50): 0.133 µM

NC/C(=C/F)COc1ccc(S(=O)(=O)N2CCC(C(=O)O)CC2)cn1 [Example 46]
IC50 ([2]; read-out: AOC3 IC50): 0.493 µM
IC50 ([1]; read-out: AOC1 IC50): > 50 µM

NC/C(=C/F)COc1ccc(S(=O)(=O)N2CCCCC2)cn1 [Example 38]
IC50 ([2]; read-out: AOC3 IC50): 0.003 µM
IC50 ([1]; read-out: AOC1 IC50): 0.235 µM

COC(=O)C1CCN(S(=O)(=O)c2ccc(OC/C(=C\F)CN)nc2)CC1 [Example 34]
IC50 ([2]; read-out: AOC3 IC50): 0.004 µM
IC50 ([1]; read-out: AOC1 IC50): 2.4 µM

NC/C(=C/F)COc1ccc(S(=O)(=O)N2CCC(C(N)=O)CC2)cn1 [Example 7]
IC50 ([2]; read-out: AOC3 IC50): 0.004 µM
IC50 ([1]; read-out: AOC1 IC50): 1.56 µM

CCNC(=O)CC1CCN(S(=O)(=O)c2ccc(OC/C(=C\F)CN)nc2)CC1 [Example 30]
IC50 ([2]; read-out: AOC3 IC50): 0.015 µM
IC50 ([1]; read-out: AOC1 IC50): 8.9 µM

NC/C(=C/F)COc1ccc(S(=O)(=O)N2CCC(O)(C(F)(F)F)CC2)cn1 [Example 42]
IC50 ([2]; read-out: AOC3 IC50): 0.006 µM
IC50 ([1]; read-out: AOC1 IC50): 2.36 µM

NC/C(=C/F)COc1ccc(S(=O)(=O)N2CCC(CC(=O)N3CC(O)C3)CC2)cn1 [Example 55]
IC50 ([2]; read-out: AOC3 IC50): 0.017 µM
IC50 ([1]; read-out: AOC1 IC50): 27.1 µM

CN(C)C(=O)CC1CCN(S(=O)(=O)c2ccc(OC/C(=C\F)CN)nc2)CC1 [Example 19]
IC50 ([2]; read-out: AOC3 IC50): 0.009 µM
IC50 ([1]; read-out: AOC1 IC50): 12.5 µM

CC(=O)N1CC(C2CCN(S(=O)(=O)c3ccc(OC/C(=C\F)CN)nc3)CC2)C1 [Example 9]
IC50 ([2]; read-out: AOC3 IC50): 0.015 µM
IC50 ([1]; read-out: AOC1 IC50): 4.55 µM

COC1CN(S(=O)(=O)c2ccc(OC/C(=C\F)CN)cc2)C1 [Reference compound A, reference compound]
IC50 [2, 3]: 0.003 µM
IC50 [1, 4]: 1.75 µM

CNC(=O)[C@@H]1CCN(S(=O)(=O)c2ccc(OC/C(=C\F)CN)nc2)C1 [Example 14]
IC50 ([1]; read-out: AOC1 IC50): 2.15 µM

CNC(=O)[C@H]1CCN(S(=O)(=O)c2ccc(OC/C(=C\F)CN)nc2)C1 [Example 11]
IC50 ([1]; read-out: AOC1 IC50): 2.55 µM
